US12280032B2, “Methods and compositions for increasing the potency of antifungal agents” (Pacific Northwest Research Institute, priority 2014, dated 2025)

Columns and labels:
[1] = system: S. cerevisiae Strain F45; experiment: Zones of growth inhibition on YPD plates containing 10 mM Enamine compound with 50 μg fluconazole disk; type: cell-based, Saccharomyces cerevisiae
Description: Zones of Growth Inhibition were Measured for the S. cerevisiae Strain F45 on YPD Plates Containing 10 mM of the Enamine Compound with a 50 μg Fluconazole Disk Applied.
Zones of growth inhibition were also measured for strain F45 in which F45 strains were spread on YPD plates that contained 10 mM of an Enamine compound which was poured into the plate, with a 50 μg fluconazole disk. Enamine is an unsaturated compound derived by the condensation of an aldehyde or ketone with a secondary amine Some enmities have structures that are similar to PE, as such, they were tested to measure their efficacy in increasing sensitivity to an antifungal.

[2] = system: S. cerevisiae (F45); experiment: YPD plate assay with antifungal filter disk, with or without PE; type: cell-based, Saccharomyces cerevisiae; parameters: Degree of clearance: unit not given here
[3] = system: Candida krusei (ATCC 6258); experiment: M.I.C. determination; type: cell-based; conditions: drug alone
[4] = system: Cryptococcus neoformans (ATCC 24067); experiment: M.I.C. determination; type: cell-based; conditions: drug alone
[5] = system: the fungus; experiment: Effects of antifungals in the presence of PE (FIG. 4); type: cell-based; conditions: PE used in conjunction with the antifungal
[6] = system: Candida glabrata (ATCC 36583); experiment: M.I.C. determination; type: cell-based; conditions: drug alone
[7] = system: Aspergillus fumigatus (ATCC 13073); experiment: M.I.C. determination; type: cell-based; conditions: drug alone
[8] = system: BY4741 lab strain; experiment: YPD plate assay with nystatin disk, with or without PE; type: cell-based, Saccharomyces cerevisiae; conditions: FIG. 9 Panel B
Description: In each panel, the top plate is YPD alone with a disc that contains DMSO, the bottom left plate is YPD alone with a disc that contains 50 μg Nystatin and the bottom right plate is YPD plus 10 mM PE with a disc that contains 50 μg Nystatin. The plates in FIG. 9, panel A are spread with the F45 strain. The plates in FIG. 9, panel B are spread with the BY4741 lab strain.
In each panel, the top plate is YPD alone with a disc that contains DMSO, the bottom left plate is YPD alone with a disc that contains 50 μg Nystatin and the bottom right plate is YPD plus 10 mM PE with a disc that contains 50 μg Nystatin. The plates in panel are spread with the F45 strain (FIG. 9, panel A), The plates in FIG. 9, panel Bare spread with the BY4741 lab strain.

[9] = system: S. cerevisiae biofilm formation; experiment: Biofilm formation (colony morphology); type: cell-based, Saccharomyces cerevisiae; conditions: determined by colony morphology; previous experiments
Description: In each panel, the left plate is YPD alone and the right plate is YPD plus 10 mM PE (a concentration that inhibits the fluffy colony morphology). Each plate also contains a paper disk containing the DMSO vehicle (FIG. 1, panel A), 25 μg fluconazole (FIG. 1, panel B), 50 μg fluconazole (FIG. 1, panel C), or 100 μg fluconazole (FIG. 1, panel D).
However, previous experiments determined that biofilm formation was inhibited at PE concentrations of 10 mM or higher. Attention is drawn to FIG. 2, in which concentrations of PE that were too low to inhibit biofilm formation (determined by colony morphology) were also shown to increase the sensitivity of the yeast strain flo11D for the fluconazole which further support the hypothesis that the effect of PE on drug sensitivity is independent of its effect on biofilm formation. As such, there is a synergistic effect upon the combination of PE with fluconazole, in which the cells are more sensitive to fluconazole in the presence of PE at a higher concentration (10 mM PE). […] It is noted that even at lower concentrations of PE (<10 mM), in which the colonies are fluffy, indicating an intact cell wall or intact morphology, the PE at lower concentrations can still enhance killing by fluconazole. […] As such, even at a lower concentration, PE in combination with fluconazole has a synergistic effect on inhibiting the growth of the fungal strain.

[10] = system: C. albicans fluconazole resistant strain R357; experiment: YPD plate assay with antifungal filter disk, with or without PE; type: cell-based, Candida albicans; parameters: unit not given here; conditions: C. albicans strain 8357
[11] = system: Candida tropicalis (ATCC 200956); experiment: Checkerboard assay (FICI) of PE with triazole; type: cell-based; conditions: named triazole in combination with PE
[12] = system: Aspergillus fumigatus (ATCC 13073); experiment: Checkerboard assay (FICI) of PE with triazole; type: cell-based; conditions: named triazole in combination with PE
[13] = system: Candida albicans (resistant=20186.025; 8357); experiment: M.I.C. determination; type: cell-based; conditions: drug alone
[14] = system: Candida glabrata (ATCC 36583); experiment: Checkerboard assay (FICI) of PE with triazole; type: cell-based; conditions: named triazole in combination with PE
[15] = system: Cryptococcus neoformans (ATCC 24067); experiment: Checkerboard assay (FICI) of PE with triazole; type: cell-based; conditions: named triazole in combination with PE
[16] = system: Candida parapsilosis (ATCC 22019); experiment: Checkerboard assay (FICI) of PE with triazole; type: cell-based; conditions: named triazole in combination with PE
[17] = system: Candida tropicalis (ATCC 200956); experiment: M.I.C. determination; type: cell-based; conditions: drug alone
[18] = system: Candida albicans (resistant=20186.025; 8357); experiment: Checkerboard assay (FICI) of PE with triazole; type: cell-based; conditions: named triazole in combination with PE
[19] = system: Candida parapsilosis (ATCC 22019); experiment: M.I.C. determination; type: cell-based; conditions: drug alone
[20] = system: Candida albicans (sensitive=ATCC 90028); experiment: M.I.C. determination; type: cell-based; conditions: drug alone
[21] = system: Candida albicans (sensitive=ATCC 90028); experiment: Checkerboard assay (FICI) of PE with triazole; type: cell-based; conditions: named triazole in combination with PE
[22] = system: Candida krusei (ATCC 6258); experiment: Checkerboard assay (FICI) of PE with triazole; type: cell-based; conditions: named triazole in combination with PE
[23] = 10 mM compound in YPD, 50 μg fluconazole disk, F45

For `CC(O)c1cccc(O)c1` (stereo not drawn) [A], the “Fluconazole Zone Size” value [1] was 11 mm.
`OCc1ccccc1` [B] was tested, and the “Fluconazole Zone Size” value [1] was 11 mm.
`CC[C@H](C)C[C@H](C)CCCCCCCCC(=O)N[C@H]1C[C@@H](O)[C@@H](NCCN)NC(=O)[C@@H]2[C@@H](O)CCN2C(=O)[C@H]([C@H](O)CCN)NC(=O)[C@H]([C@H](O)[C@@H](O)c2ccc(O)cc2)NC(=O)[C@@H]2C[C@@H](O)CN2C(=O)[C@H]([C@@H](C)O)NC1=O` [Caspofungin] gave a Degree of clearance ([2]; FIG. 8 Panel A, YPD + 10 mM PE 50 μg Caspofungin (so in the source), F45) of 0 and a Degree of clearance ([2]; FIG. 8 Panel E, YPD + 10 mM PE + 200 μg Caspofungin, F45) of 0.
In the case of `Nc1ccc(CCO)cc1` [Compound C], the “Fluconazole Zone Size” value [1] is reported as 13 mm.
For `C[C@H](O)c1cccc(C#N)c1` [D], the “Fluconazole Zone Size” value [1] was 17 mm.
For `OCCNCCc1ccccc1` [E], the “Fluconazole Zone Size” value [1] was 35 mm, the “Activity compared with PE” value [1, 23] was “activity greater than PE” and the “Growth of fungal cells on the plate with fluconazole” value (“Growth of fungal cells on the plate” for short) [1, 23] was “loss of growth”.
`CCc1ccc(N)cc1` [F] was tested, and the “Fluconazole Zone Size” value [1] was “inhibition by compound but not fluconazole”.
For `OC(Cn1cncn1)(Cn1cncn1)c1ccc(F)cc1F` [Fluconazole], the MIC [3] was 32 µg, the MIC [4] was 0.25 µg and the “Sensitivity of the fungus to the antifungal in the presence of PE” value (“Sensitivity of the fungus” below) [5] was “increased the sensitivity”. The MIC [6] was 8 µg and the MIC [7] was >128 µg.
With `Nc1[nH]c(=O)ncc1F` [Flucytosine] the “Sensitivity of the fungus” value [5] was “increased the sensitivity”.
In the case of `CC(C)Cc1ccc(CCCO)cc1` [G], the “Fluconazole Zone Size” value [1] is reported as “inhibition by compound but not fluconazole”.
With `OC1(Cc2ccccc2)CCCC1` [H] the “Fluconazole Zone Size” value [1] was “no growth” and the “Growth of fungal cells on the plate” value [1, 23] was “loss of growth”.
In the case of `NCCCCOCCc1ccccc1` [I], the “Fluconazole Zone Size” value [1] is reported as “no growth” and the “Growth of fungal cells on the plate” value [1, 23] is reported as “loss of growth”.
`OCCc1cccc(Cl)c1` [J] was tested, and the “Fluconazole Zone Size” value [1] was “no growth” and the “Growth of fungal cells on the plate” value [1, 23] was “loss of growth”.
`C[C@@H]1[C@H](O)[C@@H](C)/C=C/C=C/CC/C=C/C=C/C=C/C=C/C(O[C@H]2O[C@H](C)[C@@H](O)[C@H](N)[C@@H]2O)CC2O[C@](O)(CC(O)C(O)CCC(O)CC(O)CC(O)CC(=O)O[C@H]1C)CC(O)C2C(=O)O` (stereo partly drawn) [Nystatin] gave a Degree of clearance ([2]; FIG. 9 Panel A, Strain F45, YPD + 50 μg nystatin) of 2, a Degree of clearance ([2]; FIG. 9 Panel A, Strain F45, YPD + 10 mM PE + 50 μg nystatin) of 2 and a Degree of clearance ([8]; YPD + 50 μg nystatin) of 2. It also gave a Degree of clearance ([8]; YPD + 10 mM PE + 50 μg nystatin) of 2.
`OCCc1ccccc1` [PE, phenyl ethanol] was tested, and the “PE concentration at which biofilm formation was inhibited” value [9] was ≥ 10 mM, the Degree of clearance ([2]; FIG. 6 Panel A, YPD + 10 mM PE, disk with chloroform vehicle only, F45) was 0 and the “Effect of PE on caspofungin sensitivity” value ([2]; YPD plus 10 mM PE, 200 ng-50 μg caspofungin disk, F45, listed as PP) was “no effect”. The “Fluconazole Zone Size” value [1] was 27 mm.
In the case of `CO[C@H]1[C@@H](O)[C@H](O)[C@H](OC[C@@]23C[C@@H]4[C@H](C)CC[C@H]4[C@@]4(C=O)CC2C=C(C(C)C)[C@@]34C(=O)O)O[C@@H]1C` [Sordarin], the Degree of clearance ([2]; FIG. 7 Panel A, YPD + 10 mM PE + 50 μg Sordarin, F45) is reported as 4, the Degree of clearance ([2]; FIG. 7 Panel A, YPD alone, 50 μg Sordarin disk, F45) is reported as 8 and the Degree of clearance ([2]; FIG. 7 Panel B, YPD + 10 mM PE + 10 μg Sordarin, F45) is reported as 3. For the same compound, the Degree of clearance ([2]; FIG. 7 Panel B, YPD alone, 10 μg Sordarin disk, F45) was 2, the Degree of clearance ([2]; FIG. 7 Panel C, YPD + 10 mM PE + 1 μg Sordarin, F45) was 2 and the Degree of clearance ([2]; FIG. 7 Panel C, YPD alone, 1 μg Sordarin disk, F45) was 1. For the same compound, the Degree of clearance ([2]; FIG. 7 Panel D, YPD + 10 mM PE + 500 μg Sordarin, F45) was 1, the Degree of clearance ([2]; FIG. 7 Panel D, YPD alone, Sordarin disk (500 ng per legend), F45) was 0 and the Degree of clearance ([10]; FIG. 13 Panel A, YPD + 1 μg sordarin) was 1. It also gave a Degree of clearance ([10]; FIG. 13 Panel A, YPD + 1 μg sordarin + 10 mM PE) of 2, a Degree of clearance ([10]; FIG. 13 Panel B, YPD + 10 μg sordarin) of 2 and a Degree of clearance ([10]; FIG. 13 Panel B, YPD + 10 μg sordarin + 10 mM PE) of 3. For the same compound, the Degree of clearance ([10]; FIG. 13 Panel C, YPD + 50 μg sordarin) was 3, the Degree of clearance ([10]; FIG. 13 Panel C, YPD + 50 μg sordarin + 10 mM PE) was 4 and the “Sensitivity of the fungus” value [5] was “increased the sensitivity”.
In the case of `C[C@@H](c1ncncc1F)[C@](O)(Cn1cncn1)c1ccc(F)cc1F` [Voriconazole], the FICI [11] is reported as 0.6, the FICI [12] is reported as 0.6 and the MIC [13] is reported as >128 µg. It also gave an FICI [14] of 1.2, an FICI [15] of 1.1 and an FICI [16] of 1.6. For the same compound, the MIC [3] was 0.25 µg, the MIC [17] was 32 µg and the MIC [4] was 0.0156 µg. For the same compound, the FICI [18] was 0.3, the MIC [19] was 0.03125 µg and the MIC [20] was 0.03125 µg. For the same compound, the “Sensitivity of the fungus” value [5] was “increased the sensitivity”, the FICI [21] was 2.1 and the MIC [6] was 0.5 µg. It also gave an MIC [7] of 0.25 µg and an FICI [22] of 1.1.
